In PMC5218480 (PLoS ONE, 2017):

Tested on: MV-4-11 cells
Test: Gene expression microarray analysis (Affymetrix PrimeView) and GSEA
Format: cell-based, human
Parameters: RFU PODN (11730768_x_at) / Fold change /veh PODN (11730768_x_at) / RFU LINC00158 (11744669_a_at) / Fold change /veh LINC00158 (11744669_a_at) / RFU DUSP10 (11751237_a_at) / Fold change /veh DUSP10 (11751237_a_at) / RFU ID3 (11757404_x_at) / Fold change /veh ID3 (11757404_x_at) / RFU PLEKHG5 (11737974_s_at) / Fold change /veh PLEKHG5 (11737974_s_at) / RFU LRRC4B (11730491_at) / Fold change /veh LRRC4B (11730491_at) / RFU GIMAP4 (11747438_a_at) / Fold change /veh GIMAP4 (11747438_a_at) / RFU KRT8 (11758183_x_at) / Fold change /veh KRT8 (11758183_x_at) / RFU CNN1 (11734310_a_at) / Fold change /veh CNN1 (11734310_a_at) / RFU VPS37D (11726825_at) / Fold change /veh VPS37D (11726825_at) / RFU C10orf10 (11716522_x_at) / Fold change /veh C10orf10 (11716522_x_at) / RFU KIR2DL2 /// KIR2DL4 /// KIR2DL5A /// KIR2DL5B /// KIR2DS1 /// KIR2DS2 /// KIR2DS3 /// KIR2DS4 /// KIR3DL3 /// KIR3DL3 /// KIR3DS1 (11738374_at) / Fold change /veh KIR2DL2 /// KIR2DL4 /// KIR2DL5A /// KIR2DL5B /// KIR2DS1 /// KIR2DS2 /// KIR2DS3 /// KIR2DS4 /// KIR3DL3 /// KIR3DL3 /// KIR3DS1 (11738374_at) / RFU C1QL1 (11718748_at) / Fold change /veh C1QL1 (11718748_at) / RFU TMPRSS4 (11747572_a_at) / Fold change /veh TMPRSS4 (11747572_a_at) / RFU HAMP (11756126_x_at) / Fold change /veh HAMP (11756126_x_at) / RFU RNFT2 (11725882_a_at) / Fold change /veh RNFT2 (11725882_a_at) / RFU NR4A2 (11747474_a_at) / Fold change /veh NR4A2 (11747474_a_at) / RFU ABCC12 (11746883_a_at) / Fold change /veh ABCC12 (11746883_a_at) / RFU TMEM136 (11760407_x_at) / Fold change /veh TMEM136 (11760407_x_at) / RFU CLDN22 /// WWC2 (11732394_at) / Fold change /veh CLDN22 /// WWC2 (11732394_at) / RFU HLA-DPB1 (11760878_x_at) / Fold change /veh HLA-DPB1 (11760878_x_at) / RFU SPINT1 (11716480_a_at) / Fold change /veh SPINT1 (11716480_a_at) / RFU GAP43 (11754022_s_at) / Fold change /veh GAP43 (11754022_s_at) / RFU A4GNT (11735810_at) / Fold change /veh A4GNT (11735810_at) / RFU PRB3 (11715151_x_at) / Fold change /veh PRB3 (11715151_x_at) / RFU TUBB4B (11761932_at) / Fold change /veh TUBB4B (11761932_at) / RFU CAPN14 (11732068_a_at) / Fold change /veh CAPN14 (11732068_a_at) / RFU TMCC2 (11721928_a_at) / Fold change /veh TMCC2 (11721928_a_at) / RFU IRGQ (11745062_a_at) / Fold change /veh IRGQ (11745062_a_at) / RFU FAM174B (11720279_a_at) / Fold change /veh FAM174B (11720279_a_at) / RFU TMPRSS4 (11748680_a_at) / Fold change /veh TMPRSS4 (11748680_a_at) / RFU FAM212B (11763350_a_at) / Fold change /veh FAM212B (11763350_a_at) / RFU PLEKHG5 (11743358_a_at) / Fold change /veh PLEKHG5 (11743358_a_at) / RFU ZSCAN30 (11745921_a_at) / Fold change /veh ZSCAN30 (11745921_a_at) / RFU CMKLR1 (11741424_a_at) / Fold change /veh CMKLR1 (11741424_a_at) / RFU LOC101060620 /// MAPK8IP1 (11723275_at) / Fold change /veh LOC101060620 /// MAPK8IP1 (11723275_at) / RFU SPTSSB (11747773_x_at) / Fold change /veh SPTSSB (11747773_x_at) / RFU PRSS12 (11739890_at) / Fold change /veh PRSS12 (11739890_at) / RFU BIN1 (11741810_x_at) / Fold change /veh BIN1 (11741810_x_at) / RFU WNT11 (11732464_a_at) / Fold change /veh WNT11 (11732464_a_at) / RFU C10orf10 (11716521_a_at) / Fold change /veh C10orf10 (11716521_a_at) / RFU C5orf56 (11738089_at) / Fold change /veh C5orf56 (11738089_at) / RFU CYB561 (11721691_x_at) / Fold change /veh CYB561 (11721691_x_at) / RFU ANKRD19P (11752326_a_at) / Fold change /veh ANKRD19P (11752326_a_at) / RFU OR2T12 /// OR2T33 /// OR2T8 (11738714_s_at) / Fold change /veh OR2T12 /// OR2T33 /// OR2T8 (11738714_s_at) / RFU VCAN (11748164_a_at) / Fold change /veh VCAN (11748164_a_at) / RFU JSRP1 (11732532_at) / Fold change /veh JSRP1 (11732532_at) / RFU KRTAP10-11 (11738290_x_at) / Fold change /veh KRTAP10-11 (11738290_x_at) / RFU MYO3A (11730013_a_at) / Fold change /veh MYO3A (11730013_a_at) / RFU EBF3 (11725865_a_at) / Fold change /veh EBF3 (11725865_a_at) / RFU CAMK2N1 (11719241_x_at) / Fold change /veh CAMK2N1 (11719241_x_at) / RFU C5orf56 (11738088_a_at) / Fold change /veh C5orf56 (11738088_a_at) / RFU OLFML3 (11715873_a_at) / Fold change /veh OLFML3 (11715873_a_at) / RFU LOC100653217 /// NTM (11731650_a_at) / Fold change /veh LOC100653217 /// NTM (11731650_a_at) / RFU MAPK11 (11762145_a_at) / Fold change /veh MAPK11 (11762145_a_at) / RFU FIZ1 (11724087_x_at) / Fold change /veh FIZ1 (11724087_x_at) / RFU OASL (11726364_x_at) / Fold change /veh OASL (11726364_x_at) / RFU SOX15 (11748057_x_at) / Fold change /veh SOX15 (11748057_x_at) / RFU CD79A (11719716_a_at) / Fold change /veh CD79A (11719716_a_at) / RFU HIST1H1D (11736915_at) / Fold change /veh HIST1H1D (11736915_at) / RFU CASKIN2 (11723855_a_at) / Fold change /veh CASKIN2 (11723855_a_at) / RFU LOC730098 (11760151_x_at) / Fold change /veh LOC730098 (11760151_x_at) / RFU OR4N2 (11742367_at) / Fold change /veh OR4N2 (11742367_at) / RFU PRRT2 (11749266_a_at) / Fold change /veh PRRT2 (11749266_a_at) / RFU SNX32 (11753110_a_at) / Fold change /veh SNX32 (11753110_a_at) / RFU CDHR5 (11726645_a_at) / Fold change /veh CDHR5 (11726645_a_at) / RFU RCAN1 (11760418_a_at) / Fold change /veh RCAN1 (11760418_a_at) / RFU FAM167A (11723789_a_at) / Fold change /veh FAM167A (11723789_a_at) / RFU FAM26E (11764081_at) / Fold change /veh FAM26E (11764081_at) / RFU ISYNA1 (11749810_s_at) / Fold change /veh ISYNA1 (11749810_s_at) / RFU ACY1 (11761880_at) / Fold change /veh ACY1 (11761880_at) / RFU 11764098_at / Fold change /veh 11764098_at / RFU SAMD14 (11745864_x_at) / Fold change /veh SAMD14 (11745864_x_at) / RFU NPB (11741838_a_at) / Fold change /veh NPB (11741838_a_at) / RFU TMPRSS6 (11731388_a_at) / Fold change /veh TMPRSS6 (11731388_a_at) / RFU KRTAP10-2 (11738614_at) / Fold change /veh KRTAP10-2 (11738614_at) / RFU ARHGAP8 /// PRR5-ARHGAP8 (11727945_x_at) / Fold change /veh ARHGAP8 /// PRR5-ARHGAP8 (11727945_x_at) / RFU KRTAP5-7 /// NADSYN1 (11734609_at) / Fold change /veh KRTAP5-7 /// NADSYN1 (11734609_at) / RFU RASL12 (11751679_a_at) / Fold change /veh RASL12 (11751679_a_at) / RFU CDKN2B (11736163_a_at) / Fold change /veh CDKN2B (11736163_a_at) / RFU PRF1 (11729649_at) / Fold change /veh PRF1 (11729649_at) / RFU, ZNF638 /// ZNF638-IT1 / Fold change vs veh, ZNF638 /// ZNF638-IT1 / RFU, PANK3 / Fold change vs veh, PANK3 / RFU, SH3YL1 / Fold change vs veh, SH3YL1 / RFU, ZEB2 / Fold change vs veh, ZEB2 / RFU, NRIP1 / Fold change vs veh, NRIP1 / RFU, PTTG1IP / Fold change vs veh, PTTG1IP / RFU, CAPN2 / Fold change vs veh, CAPN2 / RFU, MED14 / Fold change vs veh, MED14 / RFU, SNORA58 / Fold change vs veh, SNORA58 / RFU, C1orf63 / Fold change vs veh, C1orf63 / RFU, LRRFIP1 / Fold change vs veh, LRRFIP1 / RFU, NDUFAF7 / Fold change vs veh, NDUFAF7 / RFU, SLC12A2 / Fold change vs veh, SLC12A2 / RFU, IBTK / Fold change vs veh, IBTK / RFU, ESF1 / Fold change vs veh, ESF1 / Fold change vs veh, TMEM50B / RFU, TAOK1 / Fold change vs veh, TAOK1 / RFU, ACBD3 / Fold change vs veh, ACBD3 / RFU, TMA16 / Fold change vs veh, TMA16 / RFU, RWDD3 / Fold change vs veh, RWDD3 / RFU, BCAT1 / Fold change vs veh, BCAT1 / RFU, EDEM3 / Fold change vs veh, EDEM3 / RFU, TMEM33 / Fold change vs veh, TMEM33 / RFU, WDR75 / Fold change vs veh, WDR75 / RFU, AHCTF1 / Fold change vs veh, AHCTF1 / RFU, TFRC / Fold change vs veh, TFRC / RFU, ZDHHC17 / Fold change vs veh, ZDHHC17 / RFU, NOM1 / Fold change vs veh, NOM1 / RFU, ARL8B / Fold change vs veh, ARL8B / RFU, ZBTB11 / Fold change vs veh, ZBTB11 / RFU, TAMM41 / Fold change vs veh, TAMM41 / RFU, KIAA1704 /// LOC100996395 / Fold change vs veh, KIAA1704 /// LOC100996395 / RFU, ING1 / Fold change vs veh, ING1 / RFU, TRMT61B / Fold change vs veh, TRMT61B / RFU, FUBP3 / Fold change vs veh, FUBP3 / RFU, TP53 / Fold change vs veh, TP53 / RFU, TNKS2 / Fold change vs veh, TNKS2 / RFU, ZFP14 / Fold change vs veh, ZFP14 / RFU, ACTR2 / Fold change vs veh, ACTR2 / RFU, PPP3R1 / Fold change vs veh, PPP3R1 / RFU, PIK3R1 / Fold change vs veh, PIK3R1 / RFU, HNRNPA1 / Fold change vs veh, HNRNPA1 / RFU, RNF170 / Fold change vs veh, RNF170 / RFU, ZNF28 / Fold change vs veh, ZNF28 / RFU, RNGTT / Fold change vs veh, RNGTT / RFU, OGT / Fold change vs veh, OGT / RFU, BRD1 / Fold change vs veh, BRD1 / RFU, MARS / Fold change vs veh, MARS / RFU, ZNF655 / Fold change vs veh, ZNF655 / RFU, FAHD1 / Fold change vs veh, FAHD1 / RFU, BDP1 / Fold change vs veh, BDP1 / RFU, LRRCC1 / Fold change vs veh, LRRCC1 / RFU, ARID1A / Fold change vs veh, ARID1A / RFU, ZNF146 / Fold change vs veh, ZNF146 / RFU, ZNF330 / Fold change vs veh, ZNF330 / RFU, GPN3 / Fold change vs veh, GPN3 / RFU, C9orf123 / Fold change vs veh, C9orf123 / RFU, N4BP2L2 / Fold change vs veh, N4BP2L2 / RFU, ARFIP1 / Fold change vs veh, ARFIP1 / RFU, FAM179B / Fold change vs veh, FAM179B / RFU, BCL10 / Fold change vs veh, BCL10 / RFU, UHRF1BP1L / Fold change vs veh, UHRF1BP1L / RFU, BET1 / Fold change vs veh, BET1 / RFU, CNOT2 / Fold change vs veh, CNOT2 / RFU, ZNF268 / Fold change vs veh, ZNF268 / Fold change vs veh, ZNF507 / RFU, DGCR2 / Fold change vs veh, DGCR2 / RFU, WDSUB1 / Fold change vs veh, WDSUB1 / Fold change vs veh, HSP90B1 /// MIR3652 / RFU, ADSS / Fold change vs veh, ADSS / RFU, GK / Fold change vs veh, GK / RFU, ZNF148 / Fold change vs veh, ZNF148 / RFU, TAF9 / Fold change vs veh, TAF9 / RFU, SLC1A5 / Fold change vs veh, SLC1A5 / RFU, SLMO2 / Fold change vs veh, SLMO2 / RFU, ABCC4 / Fold change vs veh, ABCC4 / RFU, LOC101060439 /// RAP1B / Fold change vs veh, LOC101060439 /// RAP1B / RFU, RFX7 / Fold change vs veh, RFX7 / RFU, GTPBP10 / Fold change vs veh, GTPBP10 / RFU, CNEP1R1 / Fold change vs veh, CNEP1R1 / RFU, BIVM-ERCC5 /// ERCC5 / Fold change vs veh, BIVM-ERCC5 /// ERCC5 / RFU, ILF3 / Fold change vs veh, ILF3 / RFU 11762660_at / Fold change /veh 11762660_at / RFU VCAN (11757783_s_at) / Fold change /veh VCAN (11757783_s_at) / RFU DDX43 (11728927_at) / Fold change /veh DDX43 (11728927_at) / RFU KRT8 (11758188_x_at) / Fold change /veh KRT8 (11758188_x_at) / RFU NKD1 (11759106_at) / Fold change /veh NKD1 (11759106_at) / RFU SRD5A1 (11742802_a_at) / Fold change /veh SRD5A1 (11742802_a_at) / RFU TPSAB1 /// TPSB2 (11721975_s_at) / Fold change /veh TPSAB1 /// TPSB2 (11721975_s_at) / RFU GSTM3 (11746129_a_at) / Fold change /veh GSTM3 (11746129_a_at) / RFU IL23R (11737362_x_at) / Fold change /veh IL23R (11737362_x_at) / RFU TMEM51 (11727254_a_at) / Fold change /veh TMEM51 (11727254_a_at) / RFU PIWIL2 (11732686_x_at) / Fold change /veh PIWIL2 (11732686_x_at) / RFU ORM1 (11744905_x_at) / Fold change /veh ORM1 (11744905_x_at) / RFU CCDC152 (11743942_at) / Fold change /veh CCDC152 (11743942_at) / RFU ECM1 (11717891_a_at) / Fold change /veh ECM1 (11717891_a_at) / RFU IL23R (11748794_a_at) / Fold change /veh IL23R (11748794_a_at) / RFU TNFAIP8L3 (11732012_x_at) / Fold change /veh TNFAIP8L3 (11732012_x_at) / RFU MBOAT4 (11741988_at) / Fold change /veh MBOAT4 (11741988_at) / RFU 11764193_at / Fold change /veh 11764193_at / RFU TMEM53 (11763286_at) / Fold change /veh TMEM53 (11763286_at) / RFU MAGEB2 (11727129_at) / Fold change /veh MAGEB2 (11727129_at) / RFU TMEM200A (11744735_a_at) / Fold change /veh TMEM200A (11744735_a_at) / RFU CCDC152 (11751479_a_at) / Fold change /veh CCDC152 (11751479_a_at) / RFU FAM211A (11726209_a_at) / Fold change /veh FAM211A (11726209_a_at) / RFU RGS16 (11746705_a_at) / Fold change /veh RGS16 (11746705_a_at) / RFU VCAN (11755009_s_at) / Fold change /veh VCAN (11755009_s_at) / RFU RHOB (11743442_s_at) / Fold change /veh RHOB (11743442_s_at) / RFU RGS16 (11720943_a_at) / Fold change /veh RGS16 (11720943_a_at) / RFU RGS16 (11720944_at) / Fold change /veh RGS16 (11720944_at) / RFU, VPS4B / Fold change vs veh, VPS4B / RFU, CREB1 / Fold change vs veh, CREB1 / RFU, DNAJC13 / Fold change vs veh, DNAJC13 / RFU, GNAQ / Fold change vs veh, GNAQ / RFU, CDK5R1 / Fold change vs veh, CDK5R1 / RFU, ZRANB3 / Fold change vs veh, ZRANB3 / RFU, CUL4A / Fold change vs veh, CUL4A / RFU, CCNY / Fold change vs veh, CCNY / RFU, UFL1 / Fold change vs veh, UFL1 / RFU, COG3 / Fold change vs veh, COG3 / RFU, DIAPH2 / Fold change vs veh, DIAPH2 / RFU, SKA2 / Fold change vs veh, SKA2 / RFU, AFF3 / Fold change vs veh, AFF3 / RFU, LMF1 / Fold change vs veh, LMF1 / RFU, IPO11 / Fold change vs veh, IPO11 / RFU, DFFB / Fold change vs veh, DFFB / RFU, FOXP1 / Fold change vs veh, FOXP1 / RFU, CARD8 / Fold change vs veh, CARD8 / RFU, STRN3 / Fold change vs veh, STRN3 / RFU, ADK / Fold change vs veh, ADK / RFU, RASSF2 / Fold change vs veh, RASSF2 / RFU, WIPF1 / Fold change vs veh, WIPF1 / RFU, LARP1B / Fold change vs veh, LARP1B / RFU, RASA1 / Fold change vs veh, RASA1 / RFU, RB1 / Fold change vs veh, RB1 / RFU, PPFIA1 / Fold change vs veh, PPFIA1 / RFU, MAT2A / Fold change vs veh, MAT2A / RFU, CCT5 / Fold change vs veh, CCT5 / RFU, WDR92 / Fold change vs veh, WDR92 / RFU, CUX1 / Fold change vs veh, CUX1 / RFU, TTC7A / Fold change vs veh, TTC7A / RFU, TMEM135 / Fold change vs veh, TMEM135 / RFU, DEPTOR / Fold change vs veh, DEPTOR / RFU, CPM / Fold change vs veh, CPM / RFU, DNAJB6 / Fold change vs veh, DNAJB6 / RFU, CACNA2D3 / Fold change vs veh, CACNA2D3 / RFU, DTX4 / Fold change vs veh, DTX4 / RFU, TFCP2 / Fold change vs veh, TFCP2 / RFU, GMCL1 /// GMCL1P1 / Fold change vs veh, GMCL1 /// GMCL1P1 / RFU, AEBP2 / Fold change vs veh, AEBP2 / RFU, SNHG1 /// SNORD22 /// SNORD25 /// SNORD26 /// SNORD27 /// SNORD28 /// SNORD29 /// SNORD31 / Fold change vs veh, SNHG1 /// SNORD22 /// SNORD25 /// SNORD26 /// SNORD27 /// SNORD28 /// SNORD29 /// SNORD31 / Fold change (Aza/veh), C12orf56 (ProbeSet 11735607_a_at) / Fold change (ACY-1035/veh), C12orf56 (ProbeSet 11735607_a_at) / Fold change (Aza/veh), FGFR1OP (ProbeSet 11751329_s_at) / Fold change (ACY-1035/veh), FGFR1OP (ProbeSet 11751329_s_at) / Fold change (Aza/veh), VPS36 (ProbeSet 11739960_a_at) / Fold change (ACY-1035/veh), VPS36 (ProbeSet 11739960_a_at) / RFU SYPL1 (11715823_x_at) / Fold change /veh SYPL1 (11715823_x_at) / RFU IGFBP7 (11715501_s_at) / Fold change /veh IGFBP7 (11715501_s_at) / RFU REEP3 (11722064_at) / Fold change /veh REEP3 (11722064_at) / RFU IGLL1 (11728026_x_at) / Fold change /veh IGLL1 (11728026_x_at): dose or concentration left out as unconfirmed
Conditions: ProbeSet 11728879_at; LIST B

SMILES: Nc1ncn([C@@H]2O[C@H](CO)[C@@H](O)[C@H]2O)c(=O)n1 [azacitidine]
- RFU, PPP3R1: 331.25 RFU
